{"source": "patent US20240309069A1", "about": "“COMPOSITIONS AND METHODS FOR TREATMENT OF DISEASES” (Byrock Technologies Limited, priority 2014, published 2024)", "tested_on": "carbohydrate overload model of acute laminitis in horses", "assay": "Oligofructose (carbohydrate) overload model of acute laminitis, LTNF peptide study KLM-15-02", "assay_type": "in vivo", "conditions": "all horses that received the intravenous peptide, 2 to 8 grams", "method": "This communication is a brief report on the results obtained from the recent clinical study to evaluate the potential prophylactic and/or therapeutic properties of KLM's proprietary application of a 15 amino acid sequence termed LTRF in saline when employed in a carbohydrate overload model of acute laminitis in horses.\nIn compliance with the methods outlined in protocol KLM-15-02, nine healthy, mature horses between 4 and 9 years of age were evaluated for enrollment in the clinical study. […] Preliminary examinations were deemed normal for all candidates. Eligible candidates underwent a formal acclimation period of 10 days, during which feed, water, housing and management were identical to conditions of the actual study. On Days −3, −2, and −1, oligofructose was added to the a.m. grain ration of each candidate at a dosage of 1 gram per kg body weight.\nPrior to induction on Day 0, a baseline lameness exam was repeated and captured on video. […]\nAt regular, 6-hr intervals after induction, the general health of each horse was assessed, a lameness exam was repeated, and rectal temperature was monitored. Once diarrhea had begun, each horse's hydration status was monitored at 2- to 4-hr intervals by assessing its packed cell volume (PCV; hematocrit) and plasma total protein concentration. […]", "note": "Ends that are not written are not given here.", "data": [{"sequence": "LKAMDPTPPLWIKTE [LTNF peptide, Leu-Lys-Ala-Met-Asp-Pro-Thr-Pro-Pro-Leu-Trp-Ile-Lys-Thr-Glu]", "values": [{"measurement": "signs of immune reaction or toxicity", "result": "no signs of immune reaction or toxicity"}]}]}
